# Test results from PubChem BioAssay AID1259411 (Chemical Carcinogenesis Research Information System (CCRIS), 2018).
# Activity calls are given as the source filed them. How the calls were made is not given here.
# System: rodent carcinogenicity bioassays, tumor incidence
# Test: CCRIS carcinogenicity studies
# In short: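 NCI-built, expert-reviewed records of carcinogenicity and related test outcomes (mutagenicity, tumor promotion/inhibition) compiled from published and report sources, historical span 1985-2011, not updated.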
structure (smiles),measurement,setting,value
CN(C)[C@@H]1C(=O)C(C(N)=O)=C(O)[C@@]2(O)C(=O)C3=C(O)c4c(O)cccc4[C@@](C)(O)[C@H]3C[C@@H]12,carcinogen call,"Species: MOUSE, Strain/Sex: B6C3F1/FEMALE, Route: GAVAGE, Dose: 0, 12500, 25000 PPM IN FEED FOR 103 WK (STUDY DURATION: 104 WK), Dose: 0, 12500, 25000 PPM IN FEED FOR 103 WK (STUDY DURATION: 104 WK)",inactive; negative
same,carcinogen call,"Species: MOUSE, Strain/Sex: B6C3F1/FEMALE, Route: ORAL, Dose: 0, 12500, 25000 PPM IN DIET FOR 103 WK (STUDY DURATION: 103 WK), Dose: 0, 12500, 25000 PPM IN DIET FOR 103 WK (STUDY DURATION: 103 WK)",inactive; negative
same,carcinogen call,"Species: MOUSE, Strain/Sex: B6C3F1/MALE, Route: ORAL, Dose: 0, 12500, 25000 PPM IN DIET FOR 103 WK (STUDY DURATION: 103 WK), Dose: 0, 12500, 25000 PPM IN DIET FOR 103 WK (STUDY DURATION: 103 WK)",inactive; negative
same,carcinogen call,"Species: MOUSE, Strain/Sex: B6C3F1/MALE, Route: ORAL, Dose: 0, 12500, 25000 PPM IN FEED FOR 103 WK (STUDY DURATION: 104 WK), Dose: 0, 12500, 25000 PPM IN FEED FOR 103 WK (STUDY DURATION: 104 WK)",inactive; negative
same,carcinogen call,"Species: RAT, Strain/Sex: F344/FEMALE, Route: ORAL, Dose: 0, 12500, 25000 PPM IN DIET FOR 103 WK (STUDY DURATION: 103 WK), Dose: 0, 12500, 25000 PPM IN DIET FOR 103 WK (STUDY DURATION: 103 WK)",inactive; negative
same,carcinogen call,"Species: RAT, Strain/Sex: F344/FEMALE, Route: ORAL, Dose: 0, 12500, 25000 PPM IN FEED FOR 103 WK (STUDY DURATION: 104 WK), Dose: 0, 12500, 25000 PPM IN FEED FOR 103 WK (STUDY DURATION: 104 WK)",inactive; negative
same,carcinogen call,"Species: RAT, Strain/Sex: F344/MALE, Route: ORAL, Dose: 0, 12500, 25000 PPM IN DIET FOR 103 WK (STUDY DURATION: 103 WK), Dose: 0, 12500, 25000 PPM IN DIET FOR 103 WK (STUDY DURATION: 103 WK)",inactive; negative
same,carcinogen call,"Species: RAT, Strain/Sex: F344/MALE, Route: ORAL, Dose: 0, 12500, 25000 PPM IN FEED FOR 103 WK (STUDY DURATION: 104 WK), Dose: 0, 12500, 25000 PPM IN FEED FOR 103 WK (STUDY DURATION: 104 WK)",inactive; negative
ClCC(Cl)(Cl)Cl,carcinogen call,"Species: MOUSE, Strain/Sex: B6C3F1/FEMALE, Route: GAVAGE, Dose: 0, 250, 500 MG/KG IN CORN OIL, Dose: 0, 250, 500 MG/KG IN CORN OIL, Tumor Site: Type of Lesion: LIVER: HEPATOCELLULAR ADENOMA OR CARCINOMA",active; positive
same,carcinogen call,"Species: MOUSE, Strain/Sex: B6C3F1/MALE, Route: GAVAGE, Dose: 0, 250, 500 MG/KG IN CORN OIL, Dose: 0, 250, 500 MG/KG IN CORN OIL, Tumor Site: Type of Lesion: LIVER: HEPATOCELLULAR ADENOMA",active; positive
same,carcinogen call,"Species: RAT, Strain/Sex: F344/FEMALE, Route: GAVAGE, Dose: 0, 125, 250 MG/KG IN CORN OIL 5 D/WK FOR 103 WK (STUDY DURATION: 103 WK), Dose: 0, 125, 250 MG/KG IN CORN OIL 5 D/WK FOR 103 WK (STUDY DURATION: 103 WK)",inactive; negative
same,carcinogen call,"Species: RAT, Strain/Sex: F344/MALE, Route: GAVAGE, Dose: 0, 125, 250 MG/KG IN CORN OIL 5 D/WK FOR 103 WK (STUDY DURATION: 103 WK), Dose: 0, 125, 250 MG/KG IN CORN OIL 5 D/WK FOR 103 WK (STUDY DURATION: 103 WK), Tumor Site: Type of Lesion: LIVER: NEOPLASTIC NODULE, HEPATOCELLULAR CARCINOMA",equivocal
C=CCc1ccc(OC)cc1,carcinogen call,"Species: MOUSE, Strain/Sex: B6C3F1/MALE, Route: INTRAPERITONEAL, Dose: 0, 4.75 UMOL TOTAL DOSE, D 1,8,15 AND 22 AFTER BIRTH, AUTOPSIED AT 13-18 MO, Dose: 0, 4.75 UMOL TOTAL DOSE, D 1,8,15 AND 22 AFTER BIRTH, AUTOPSIED AT 13-18 MO, Tumor Site: Type of Lesion: LIVER: HEPATOMA",active; positive
same,carcinogen call,"Species: MOUSE, Strain/Sex: C3H/MALE, Route: INTRAPERITONEAL, Dose: 0, 9.45 UMOL TOTAL DOSE, D 1,8,15 AND 22 AFTER BIRTH, AUTOPSIED AT 12 MO, Dose: 0, 9.45 UMOL TOTAL DOSE, D 1,8,15 AND 22 AFTER BIRTH, AUTOPSIED AT 12 MO, Tumor Site: Type of Lesion: LIVER: HEPATOMA",active; positive
same,carcinogen call,"Species: MOUSE, Strain/Sex: CD-1/FEMALE, Route: ORAL, Dose: 0, 0.23, 0.46% IN DIET, FOR 12 MO, Dose: 0, 0.23, 0.46% IN DIET, FOR 12 MO, Tumor Site: Type of Lesion: LIVER: HEPATOMA",active; positive
same,carcinogen call,"Species: MOUSE, Strain/Sex: CD-1/MALE,FEMALE, Route: GAVAGE, Dose: 0, 25 UMOL/G TOTAL DOSE, 2/WK FOR 5 WK BEGINNING ON D 4 AFTER BIRTH, AUTOPSIED AT 11-14 MO, Dose: 0, 25 UMOL/G TOTAL DOSE, 2/WK FOR 5 WK BEGINNING ON D 4 AFTER BIRTH, AUTOPSIED AT 11-14 MO, Tumor Site: Type of Lesion: LIVER: HEPATOMA",active; positive
same,carcinogen call,"Species: MOUSE, Strain/Sex: CD-1/MALE, Route: SUBCUTANEOUS, Dose: 0, 0.17, 0.35 UMOL IN 0.025 ML TRIOCTANOIN WITHIN 24 HR AFTER BIRTH THEN 0, 0.47, 0.69 UMOL IN 0.05 ML TRIOCTANOIN ON D, Dose: 0, 0.17, 0.35 UMOL IN 0.025 ML TRIOCTANOIN WITHIN 24 HR AFTER BIRTH THEN 0, 0.47, 0.69 UMOL IN 0.05 ML TRIOCTANOIN ON D, Tumor Site: Type of Lesion: LIVER: HEPATOCELLULAR CARCINOMA",active; positive
same,carcinogen call,"Species: MOUSE, Strain/Sex: CD-1/MALE, Route: SUBCUTANEOUS, Dose: 0, 4.43, 5.19 UMOL TOTAL DOSE, D 1,8,15 AND 22 AFTER BIRTH, Dose: 0, 4.43, 5.19 UMOL TOTAL DOSE, D 1,8,15 AND 22 AFTER BIRTH, Tumor Site: Type of Lesion: LIVER: HEPATOCELLULAR CARCINOMA",active; positive
same,carcinogen call,"Species: Mouse, Strain/Sex: ICR/Female (30 324 day survivors/Group), Route: Intraperitoneal injection, Dose: 150 mg/kg bw a wk for 17 wks, study duration 537 days, Tumor Site: Type of Lesion: Liver: Hepatocellular adenoma and carcinoma",active; positive (80% incidence). apparent lack of concurrent controls.
CC(C)NC(=O)N1CC(=O)N(c2cc(Cl)cc(Cl)c2)C1=O,carcinogen call,"Species: Mouse, Strain/Sex: CD-1/Female (50/Group), Route: Oral, Dose: 0, 160, 800, 4000 ppm of 95.7% iprodione in diet for 99 wk, study duration 99 wk, Dose: 0, 160, 800, 4000 ppm of 95.7% iprodione in diet for 99 wk, study duration 99 wk, Tumor Site: Type of Lesion: Liver: hepatocellular adenoma and carcinoma in high dose mice",active; positive
same,carcinogen call,"Species: Mouse, Strain/Sex: CD-1/Male (50/Group), Route: Oral, Dose: 0, 160, 800, 4000 ppm of 95.7% iprodione in diet for 99 wk, study duration 99 wk, Dose: 0, 160, 800, 4000 ppm of 95.7% iprodione in diet for 99 wk, study duration 99 wk, Tumor Site: Type of Lesion: Liver: hepatocellular adenoma and carcinoma in high dose mice",active; positive
same,carcinogen call,"Species: Rat, Strain/Sex: Sprague-Dawley/Female (60/Group), Route: Oral, Dose: 0, 8.4, 16.5, 95 mg/kg/day of 94.5-95.7% iprodione in diet for 104 wk, study duration 104 wk, Dose: 0, 8.4, 16.5, 95 mg/kg/day of 94.5-95.7% iprodione in diet for 104 wk, study duration 104 wk",inactive; negative
same,carcinogen call,"Species: Rat, Strain/Sex: Sprague-Dawley/Male (60/Group), Route: Oral, Dose: 0, 6.1, 12.4, 69 mg/kg/day of 94.5-95.7% iprodione in diet for 104 wk, study duration 104 wk, Dose: 0, 6.1, 12.4, 69 mg/kg/day of 94.5-95.7% iprodione in diet for 104 wk, study duration 104 wk, Tumor Site: Type of Lesion: Testes: Interstitial cell adenoma (high dose only)",active; positive
O=C1c2ccccc2C(=O)c2ccccc21,carcinogen call,"Species: MOUSE, Strain/Sex: B6C3F1/MALE, Route: DIET, Dose: 0, 833, 2500, 7500 PPM FOR 2 YR (STUDY DURATION: 2 YRS), Dose: 0, 833, 2500, 7500 PPM FOR 2 YR (STUDY DURATION: 2 YRS), Tumor Site: Type of Lesion: LIVER: HEPATOCELLULAR ADENOMA, CARCINOMA OR HEPATOBLASTOMA",active; positive
same,carcinogen call,"Species: RAT, Strain/Sex: F344/N/MALE, Route: DIET, Dose: 0, 469, 938, 1875, 3750 PPM FOR 2 YRS (STUDY DURATION: 2YRS), Dose: 0, 469, 938, 1875, 3750 PPM FOR 2 YRS (STUDY DURATION: 2YRS), Tumor Site: Type of Lesion: KIDNEY: RENAL TUBULE ADENOMA OR CARCINOMA, LIVER: HEPATOCELLULAR ADENOMA",active; positive
same,carcinogen call,"Species: RAT, Strain/Sex: F344/N/MALE, Route: DIET, Dose: 0, 469, 938, 1875, 3750 PPM FOR 2 YRS (STUDY DURATION: 2YRS), Dose: 0, 469, 938, 1875, 3750 PPM FOR 2 YRS (STUDY DURATION: 2YRS), Tumor Site: Type of Lesion: KIDNEY: RENAL TUBULE ADENOMA, BLADDER: PAPILLOMA","active; positive; no true dose response, p values = 0.01 in these 2 cases; all others no"
